# Measurements: patent publication US20240109918A1, “HETEROCYCLIC COMPOUNDS AND USES THEREOF” (Kumquat Biosciences Inc., priority 2022, published 2024)
# Tests used:
# [1] = molecular target: T1, KRASG12D (Homo sapiens, UniProt P01116, G12D); test: Bio-Biochem-PPI-HTRF Ras-SOS1 interaction assay (KRAS G12D); format: biochemical; conditions: 5 nM
# T1 construct: made in house; host or cells: E. coli BL21 (DE3)
# How it was run: (§1)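 GST-tagged K-Ras (wt or G12D) with anti-GST-Eu(K) donor was mixed with His-hSOS1 and anti-6His-XL665 acceptor in HEPES pH 7.4/NaCl/DTT/BSA/Igepal buffer, with compound in duplicate from 10 μM down to 0.01 μM. After about 10 min or longer, HTRF 665/620 nm ratio gave IC50.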
# [2] = molecular target: T2, KRASwt (Homo sapiens, UniProt P01116); test: Bio-Biochem-PPI-HTRF Ras-SOS1 interaction assay (KRAS wt); format: biochemical; conditions: 5 nM
# T2 construct: made in house; host or cells: E. coli BL21 (DE3)
# T2 sequence (P01116 1-188 isoform P01116-2): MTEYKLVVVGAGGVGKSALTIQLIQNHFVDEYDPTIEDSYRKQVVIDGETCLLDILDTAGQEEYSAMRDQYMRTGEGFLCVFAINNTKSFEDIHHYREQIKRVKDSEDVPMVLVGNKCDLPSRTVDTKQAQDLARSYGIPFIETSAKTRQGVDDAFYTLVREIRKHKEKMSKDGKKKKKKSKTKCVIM
# How it was run: as §1
# T1 sequence (P01116 1-188 isoform P01116-2 G12D): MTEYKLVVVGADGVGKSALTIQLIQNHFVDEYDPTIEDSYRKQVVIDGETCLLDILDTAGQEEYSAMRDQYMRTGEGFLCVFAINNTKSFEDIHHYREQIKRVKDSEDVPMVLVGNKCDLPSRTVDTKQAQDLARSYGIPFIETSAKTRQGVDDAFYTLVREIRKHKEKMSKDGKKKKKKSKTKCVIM
Structure (SMILES),IC50 [1] [µM],IC50 [2] [µM]
"C#Cc1c(F)ccc2cc(O)cc(-c3ncc4c(N5CCCC6(CNC6)C5)nc(O[C@@H](C)[C@@H]5CCCN5C)nc4c3F)c12 [compound 152, 5-ethynyl-6-fluoro-4-(8-fluoro-2-((S)-1-((S)-1-methylpyrrolidin-2-yl)ethoxy)-4-(2,6-diazaspiro[3.5]nonan-6-yl)pyrido[4,3-d]pyrimidin-7-yl)naphthalen-2-ol]",≥ 5,< 5
"N#Cc1c(N)sc2c(F)ccc(-c3c(Cl)cc4c(N5CCCC6(CN(C(=O)[C@@H]7C[C@H]7C#N)C6)C5)nc(OC[C@@]56CCCN5C[C@H](F)C6)nc4c3F)c12 [compound 104, 2-amino-4-(6-chloro-4-(2-((1R,2R)-2-cyanocyclopropane-1-carbonyl)-2,6-diazaspiro[3.5]nonan-6-yl)-8-fluoro-2-(((2R,7aS)-2-fluorotetrahydro-1H-pyrrolizin-7a(5H)-yl)methoxy)quinazolin-7-yl)-7-fluorobenzo[b]thiophene-3-carbonitrile]",< 5,< 5
"Nc1nc2c(-c3c(Cl)cc4c(N5CCOC6(CNC6)C5)nc(OC[C@@]56CCCN5C[C@H](F)C6)nc4c3F)ccc(F)c2s1 [compound 107, 4-(6-chloro-8-fluoro-2-(((2R,7aS)-2-fluorotetrahydro-1H-pyrrolizin-7a(5H)-yl)methoxy)-4-(5-oxa-2,8-diazaspiro[3.5]nonan-8-yl)quinazolin-7-yl)-7-fluorobenzo[d]thiazol-2-amine]",< 5,< 5
"Cc1ccnc(C(C)C)c1-n1c(=O)nc(N2CCOC3(CNC3)C2)c2cc(F)c(-c3c(O)cccc3F)nc21 [compound 112, 6-fluoro-7-(2-fluoro-6-hydroxyphenyl)-1-(2-isopropyl-4-methylpyridin-3-yl)-4-(5-oxa-2,8-diazaspiro[3.5]nonan-8-yl)pyrido[2,3-d]pyrimidin-2(1H)-one]",≥ 5,≥ 5
"C#Cc1c(F)ccc2cc(O)cc(-c3ccc4c(N5CCOC6(CNC6)C5)nc(OC[C@@]56CCCN5C[C@H](F)C6)nc4c3F)c12 [compound 158, 5-ethynyl-6-fluoro-4-(8-fluoro-2-(((2R,7aS)-2-fluorotetrahydro-1H-pyrrolizin-7a(5H)-yl)methoxy)-4-(5-oxa-2,8-diazaspiro[3.5]nonan-8-yl)quinazolin-7-yl)naphthalen-2-ol]",< 5,< 5
"N#Cc1c(N)sc2c(F)ccc(-c3c(Cl)cc4c(N5CCCCC6(CN(C(=O)[C@H]7CC7(F)F)C6)C5)nc(OC[C@@]56CCCN5C[C@H](F)C6)nc4c3F)c12 (single isomer, unassigned) [compound 118]",< 5,< 5

# Second part, the compound after the results:
IC50 [1] [µM],IC50 [2] [µM],Structure (SMILES)
< 5,< 5,"N#Cc1c(N)sc2c(F)ccc(-c3c(Cl)cc4c(N5CCCCC6(CN(C(=O)C7CC7C(F)F)C6)C5)nc(OC[C@@]56CCCN5C[C@H](F)C6)nc4c3F)c12 (stereo partly drawn) [compound 287, 2-amino-4-(6-chloro-4-(2-(2-(difluoromethyl)cyclopropane-1-carbonyl)-2,6-diazaspiro[3.6]decan-6-yl)-8-fluoro-2-(((2R,7aS)-2-fluorotetrahydro-1H-pyrrolizin-7a(5H)-yl)methoxy)quinazolin-7-yl)-7-fluorobenzo[b]thiophene-3-carbonitrile]"
< 5,< 5,"COc1nc(N2CCCCC3(CN(C(C)=O)C3)C2)c2cc(Cl)c(-c3ccc(F)c4sc(N)c(C#N)c34)c(F)c2n1 [compound 256, 4-(4-(2-acetyl-2,6-diazaspiro[3.6]decan-6-yl)-6-chloro-8-fluoro-2-methoxyquinazolin-7-yl)-2-amino-7-fluorobenzo[b]thiophene-3-carbonitrile]"
< 5,< 5,"N#Cc1c(N)sc2c(F)ccc(-c3c(Cl)cc4c(N5CCCCC6(CN(C(=O)CC7CC7(F)F)C6)C5)nc(OC[C@@]56CCCN5C[C@H](F)C6)nc4c3F)c12 (stereo partly drawn) [compound 235, 2-amino-4-(6-chloro-4-(2-(2-(2,2-difluorocyclopropyl)acetyl)-2,6-diazaspiro[3.6]decan-6-yl)-8-fluoro-2-(((2R,7aS)-2-fluorotetrahydro-1H-pyrrolizin-7a(5H)-yl)methoxy)quinazolin-7-yl)-7-fluorobenzo[b]thiophene-3-carbonitrile]"
< 5,< 5,"N#Cc1c(N)sc2c(F)ccc(-c3c(Cl)cc4c(N5CC(O)CCC6(CN(C(=O)[C@@H]7CC7(F)F)C6)C5)nc(OC[C@@]56CCCN5C[C@H](F)C6)nc4c3F)c12 (stereo partly drawn) [compound 275, 2-amino-4-(6-chloro-4-(2-((S)-2,2-difluorocyclopropane-1-carbonyl)-8-hydroxy-2,6-diazaspiro[3.6]decan-6-yl)-8-fluoro-2-(((2R,7aS)-2-fluorotetrahydro-1H-pyrrolizin-7a(5H)-yl)methoxy)quinazolin-7-yl)-7-fluorobenzo[b]thiophene-3-carbonitrile]"
< 5,< 5,"N#Cc1c(N)sc2c(F)ccc(-c3c(Cl)cc4c(N5CCCCC6(CN(C(=O)CN7CCOCC7=O)C6)C5)nc(OC[C@@]56CCCN5C[C@H](F)C6)nc4c3F)c12 [compound 326, 2-amino-4-(6-chloro-8-fluoro-2-(((2R,7aS)-2-fluorotetrahydro-1H-pyrrolizin-7a(5H)-yl)methoxy)-4-(2-(2-(3-oxomorpholino)acetyl)-2,6-diazaspiro[3.6]decan-6-yl)quinazolin-7-yl)-7-fluorobenzo[b]thiophene-3-carbonitrile]"
< 5,< 5,"Nc1nc2c(-c3c(Cl)cc4c(N5CCC6(CC5)CN(C(=O)c5nc[nH]n5)C6)nc(OC[C@@]56CCCN5C[C@H](F)C6)nc4c3F)ccc(F)c2s1 [compound 248, (7-(7-(2-amino-7-fluorobenzo[d]thiazol-4-yl)-6-chloro-8-fluoro-2-(((2R,7aS)-2-fluorotetrahydro-1H-pyrrolizin-7a(5H)-yl)methoxy)quinazolin-4-yl)-2,7-diazaspiro[3.5]nonan-2-yl) (1H-1,2,4-triazol-3-yl)methanone]"
< 5,< 5,"COc1cc(C(=O)N2CC3(CCCCN(c4nc(OC[C@@]56CCCN5C[C@H](F)C6)nc5c(F)c(-c6ccc(F)c7sc(N)c(C#N)c67)c(Cl)cc45)C3)C2)n(C)n1 [compound 258, 2-amino-4-(6-chloro-8-fluoro-2-(((2R,7aS)-2-fluorotetrahydro-1H-pyrrolizin-7a(5H)-yl)methoxy)-4-(2-(3-methoxy-1-methyl-1H-pyrazole-5-carbonyl)-2,6-diazaspiro[3.6]decan-6-yl)quinazolin-7-yl)-7-fluorobenzo[b]thiophene-3-carbonitrile]"
< 5,< 5,"C[C@@H]1CN(C(=O)N2CC3(CCCCN(c4nc(OC[C@@]56CCCN5C[C@H](F)C6)nc5c(F)c(-c6ccc(F)c7sc(N)c(C#N)c67)c(Cl)cc45)C3)C2)CCO1 [compound 322, 2-amino-4-(6-chloro-8-fluoro-2-(((2R,7aS)-2-fluorotetrahydro-1H-pyrrolizin-7a(5H)-yl)methoxy)-4-(2-((R)-2-methylmorpholine-4-carbonyl)-2,6-diazaspiro[3.6]decan-6-yl)quinazolin-7-yl)-7-fluorobenzo[b]thiophene-3-carbonitrile]"
